Values joined by “and” are separate entries in the source; they are usually repeats but may differ in a detail not shown here. Identical values can stand only once. Toxic doses and inconclusive results are not listed. Rule as the data show it: active = T/C of 150% or more; inactive = T/C below 125%.
System: L1210 leukemia ip in BDF1 mice, survival T/C
Assay: NCI In Vivo Anticancer Drug Screen. Data for tumor model L1210 Leukemia (intraperitoneal) in B6D2F1 (BDF1) mice
Conditions: endpoint: mean survival time, higher = longer survival
How it was run: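 Read-out is survival time, reported as the treated-group measurement over the vehicle-control measurement.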

[1] = dose: 100.0 mg/kg/injection, schedule: Q01DX009 (ip), vehicle: saline with Tween-80
[2] = dose: 200.0 mg/kg/injection, schedule: Q01DX009 (ip), vehicle: saline with Tween-80
[3] = dose: 400.0 mg/kg/injection, schedule: Q01DX009 (ip), vehicle: saline with Tween-80
[4] = dose: 100.0 mg/kg/injection, schedule: Q04DX003 (ip), vehicle: saline
[5] = dose: 200.0 mg/kg/injection, schedule: Q04DX003 (ip), vehicle: saline
[6] = dose: 400.0 mg/kg/injection, schedule: Q04DX003 (ip), vehicle: saline
[7] = dose: 100.0 mg/kg/injection, schedule: Q01DX001 (ip), vehicle: carboxymethylcellulose (CMC)
[8] = dose: 200.0 mg/kg/injection, schedule: Q01DX001 (ip), vehicle: carboxymethylcellulose (CMC)
[9] = dose: 400.0 mg/kg/injection, schedule: Q01DX001 (ip), vehicle: carboxymethylcellulose (CMC)

Measured: T/C

O=C(Nc1cccc2ccccc12)OC1CCCCC1Br (stereo not drawn)
inactive: dose: 200.0 mg/kg/injection, schedule: Q01DX001 (ip), vehicle: saline with Tween-80 89 % of control | dose: 400.0 mg/kg/injection, schedule: Q01DX001 (ip), vehicle: saline with Tween-80 89 % of control

CC(=O)Nc1c(Cl)c(Cl)c2c(c1Cl)Cc1cc(Cl)c(Cl)cc1-2
inactive: dose: 50.0 mg/kg/injection, schedule: Q01DX009 (ip), vehicle: acetone 93 % of control | dose: 50.0 mg/kg/injection, schedule: Q04DX003 (ip), vehicle: acetone 94 % of control | dose: 100.0 mg/kg/injection, schedule: Q01DX009 (ip), vehicle: acetone 95 % of control | dose: 100.0 mg/kg/injection, schedule: Q04DX003 (ip), vehicle: acetone 93 % of control | dose: 200.0 mg/kg/injection, schedule: Q01DX009 (ip), vehicle: acetone 97 % of control | dose: 200.0 mg/kg/injection, schedule: Q04DX003 (ip), vehicle: acetone 93 % of control

O=C(Nc1ccc(Cl)cc1)N1CC1
inactive: dose: 12.5 mg/kg/injection, schedule: Q04DX003 (ip), vehicle: Klucel (hydroxypropylcellulose) (HPC) 92 % of control | dose: 25.0 mg/kg/injection, schedule: Q04DX003 (ip), vehicle: Klucel (hydroxypropylcellulose) (HPC) 94 % of control | dose: 50.0 mg/kg/injection, schedule: Q04DX003 (ip), vehicle: Klucel (hydroxypropylcellulose) (HPC) 98 % of control

c1ccc2c(C(CCN3CCOCC3)(CCN3CCOCC3)CNC3=NCCN3)cccc2c1
inactive: dose: 12.5 mg/kg/injection, schedule: Q01DX009 (ip), vehicle: saline 105 % of control | dose: 25.0 mg/kg/injection, schedule: Q01DX009 (ip), vehicle: saline with Tween-80 103 % of control | dose: 25.0 mg/kg/injection, schedule: Q01DX009 (ip), vehicle: saline 109 % of control | dose: 50.0 mg/kg/injection, schedule: Q01DX009 (ip), vehicle: saline 111 % of control

Clc1ccc(/C(=C(\Br)c2ccccc2)c2ccccc2)cc1
inactive: [1] 96 % of control and 98 % of control | [2] 95 % of control and 101 % of control | [3] 96 % of control and 102 % of control

CCCCOCCOc1ccc(C(=O)O)cc1
inactive: dose: 100.0 mg/kg/injection, schedule: Q01DX001 (ip), vehicle: other 106 % of control | [4] 87 % of control | dose: 200.0 mg/kg/injection, schedule: Q01DX001 (ip), vehicle: other 94 % of control | [5] 94 % of control | dose: 400.0 mg/kg/injection, schedule: Q01DX001 (ip), vehicle: other 103 % of control | [6] 87 % of control

CCCN1c2c(nc(N)[nH]c2=O)NCC1CNc1ccc(C(=O)NC(CCC(=O)O)C(=O)O)cc1 (stereo not drawn)
inactive: dose: 100.0 mg/kg/injection, schedule: Q01DX009 (ip), vehicle: saline 96 % of control | [4] 108 % of control | dose: 200.0 mg/kg/injection, schedule: Q01DX009 (ip), vehicle: saline 101 % of control | [5] 97 % of control | dose: 400.0 mg/kg/injection, schedule: Q01DX009 (ip), vehicle: saline 96 % of control | [6] 101 % of control

COc1cc(O)c(C(C)=O)c(OC)c1
inactive: [1] 98 % of control | dose: 100.0 mg/kg/injection, schedule: Q04DX003 (ip), vehicle: saline with Tween-80 101 % of control | [2] 96 % of control | dose: 200.0 mg/kg/injection, schedule: Q04DX003 (ip), vehicle: saline with Tween-80 95 % of control | [3] 90 % of control | dose: 400.0 mg/kg/injection, schedule: Q04DX003 (ip), vehicle: saline with Tween-80 93 % of control

N/N=C(\c1ccccc1)c1ccc(Cl)cc1
inactive: [7] 96 % of control | [8] 87 % of control | [9] 95 % of control

CCCC1=C(CCC)C1C(=O)O
inactive: dose: 50.0 mg/kg/injection, schedule: Q01DX009 (ip), vehicle: Klucel (hydroxypropylcellulose) (HPC) 91 % of control | dose: 100.0 mg/kg/injection, schedule: Q01DX009 (ip), vehicle: Klucel (hydroxypropylcellulose) (HPC) 100 % of control | dose: 100.0 mg/kg/injection, schedule: Q04DX003 (ip), vehicle: Klucel (hydroxypropylcellulose) (HPC) 103 % of control | dose: 200.0 mg/kg/injection, schedule: Q01DX009 (ip), vehicle: Klucel (hydroxypropylcellulose) (HPC) 88 % of control | dose: 200.0 mg/kg/injection, schedule: Q04DX003 (ip), vehicle: Klucel (hydroxypropylcellulose) (HPC) 96 % of control

OC1/C(=C/c2ccco2)CCC2CCCCC21 (stereo not drawn)
inactive: dose: 100.0 mg/kg/injection, schedule: Q01DX001 (ip), vehicle: Klucel (hydroxypropylcellulose) (HPC) 101 % of control | dose: 200.0 mg/kg/injection, schedule: Q01DX001 (ip), vehicle: Klucel (hydroxypropylcellulose) (HPC) 98 % of control | dose: 400.0 mg/kg/injection, schedule: Q01DX001 (ip), vehicle: Klucel (hydroxypropylcellulose) (HPC) 90 % of control

Cc1c([N+](=O)[O-])cc(C(=O)c2ccccc2C(=O)O)cc1[N+](=O)[O-]
inactive: dose: 75.0 mg/kg/injection, schedule: Q04DX003 (ip), vehicle: Klucel (hydroxypropylcellulose) (HPC) 98 % of control | dose: 150.0 mg/kg/injection, schedule: Q04DX003 (ip), vehicle: Klucel (hydroxypropylcellulose) (HPC) 91 % of control | dose: 300.0 mg/kg/injection, schedule: Q04DX003 (ip), vehicle: Klucel (hydroxypropylcellulose) (HPC) 91 % of control

N#CC(Nc1c(N)nc(-c2ccccc2)nc1N)c1ccc(N(CCCl)CCCl)cc1 (stereo not drawn)
inactive: dose: 50.0 mg/kg/injection, schedule: Q01DX001 (ip), vehicle: carboxymethylcellulose (CMC) 100 % of control | [7] 115 % of control | [8] 100 % of control | [9] 105 % of control

CCCCC(CCC)CCC
inactive: dose: 100.0 mg/kg/injection, schedule: Q04DX002 (ip), vehicle: saline with Tween-80 103 % of control | dose: 200.0 mg/kg/injection, schedule: Q04DX002 (ip), vehicle: saline with Tween-80 94 % of control | dose: 400.0 mg/kg/injection, schedule: Q04DX002 (ip), vehicle: saline with Tween-80 106 % of control

O=C(O)c1cccc(S(=O)(=O)O)c1
inactive: dose: 100.0 mg/kg/injection, schedule: Q01DX001 (ip), vehicle: saline 105 % of control | dose: 200.0 mg/kg/injection, schedule: Q01DX001 (ip), vehicle: saline 98 % of control | dose: 400.0 mg/kg/injection, schedule: Q01DX001 (ip), vehicle: saline 102 % of control

CCC1CC2c3cc(OC)c(OC)cc3CCN2CC1(O)Cc1nccc2c1CCCC2 (stereo not drawn)
inactive: [7] 104 % of control | [8] 103 % of control | [9] 95 % of control

Cc1nccc2c(C)c3sc4ccccc4c3cc12
inactive: dose: 124.0 mg/kg/injection, schedule: Q01DX001 (ip), vehicle: alcohol 96 % of control | dose: 186.0 mg/kg/injection, schedule: Q01DX001 (ip), vehicle: alcohol 110 % of control | dose: 280.0 mg/kg/injection, schedule: Q01DX001 (ip), vehicle: alcohol 117 % of control | dose: 320.0 mg/kg/injection, schedule: Q01DX001 (ip), vehicle: alcohol 109 % of control

O=C(SCO)c1ccccc1
inactive: dose: 100.0 mg/kg/injection, schedule: Q01DX009 (sc), vehicle: olive oil, sesame oil, peanut oil 108 % of control | dose: 100.0 mg/kg/injection, schedule: Q04DX003 (sc), vehicle: olive oil, sesame oil, peanut oil 107 % of control | dose: 200.0 mg/kg/injection, schedule: Q01DX009 (sc), vehicle: olive oil, sesame oil, peanut oil 96 % of control | dose: 200.0 mg/kg/injection, schedule: Q04DX003 (sc), vehicle: olive oil, sesame oil, peanut oil 96 % of control | dose: 400.0 mg/kg/injection, schedule: Q01DX009 (sc), vehicle: olive oil, sesame oil, peanut oil 103 % of control | dose: 400.0 mg/kg/injection, schedule: Q04DX003 (sc), vehicle: olive oil, sesame oil, peanut oil 93 % of control

From PubChem BioAssay AID248 (DTP/NCI, 2004)
